Data on 27 compounds can be found in article PMC9604066 (International Journal of Molecular Sciences, 2022).

Values after ≈ are worked out from the molar mass of the structure shown. Where only a bound is given, the exact number is not on record here.

For orientation: EC50 means the concentration giving half of the maximal effect. A higher EC50 goes with a less potent agent. In general, logP refers to a log measure of how a compound divides between an organic and an aqueous phase. For orientation: EC90 means the concentration needed for an effect of 90%.

Series [1] concerns YFV strain 17D (Stamaril) on Huh-7 cells. Briefly: microbe, parasite or virus in culture. The class given is cell-based, yellow fever virus. Particulars: for EC50: Yellow fever virus, Huh-7.
The next series is described as follows: in vitro. As to conditions: human.
The subject of series [2] is 17D vaccine strain of YFV. Particulars: cited from earlier work.
Another series concerns yellow fever. Particulars: rhesus monkey, in vivo; cited from earlier work.

In turn, `Clc1ccccc1Cn1c(-c2cc3cc(Cc4ccc5oc(-c6nc7ccccc7n6Cc6ccccc6Cl)cc5c4)ccc3o2)nc2ccccc21` [3g, 5,5′-Methylenebis(2-[1-(o-chlorobenzyl)benzimidazol-2-yl]benzofuran)] gave an EC50 in series [1] of over 137 µM.
On to `CN1CC(=O)N(c2ccc(Cl)cc2)C1c1cc2cc(Cc3ccc4oc(C5N(C)CC(=O)N5c5ccc(Cl)cc5)cc4c3)ccc2o1` (stereo not drawn) [2i, (2″R,2‴R)-, (2″S,2‴S)-, and meso-(2″R,2‴S)-5,5′-Methylenebis(2-[N-methyl-3″-(4-chlorophenyl)-4″-oxo-1″,3″-imidazolidin-2″-yl]benzofuran)], for which, in series [1], the SI was 0.85 and it took 14.4 µM to reach a half-maximal effect (EC50). The compound further gave a CC50 in “in vitro” of 12.3 µM.
In the case of `Cc1cccc(N2C(=O)CN(C)C2c2cc3cc(Cc4ccc5oc(C6N(C)CC(=O)N6c6cccc(C)c6C)cc5c4)ccc3o2)c1C` (stereo not drawn) [2c, (2″R,2‴R)-, (2″S,2‴S)-, and meso-(2″R,2‴S)-5,5′-Methylenebis(2-[N-methyl-3″-(2,3-dimethylphenyl)-4″-oxo-1″,3″-imidazolidin-2″-yl]benzofuran)], in “physchem”, the logP came to 3.77. A half-maximal response in series [1] (EC50) required 6.75 µM. In the series “in vitro”, the CC50 worked out at 41 µM.
In series [1], `Cc1ccc(Cn2c(-c3cc4cc(Cc5ccc6oc(-c7nc8ccccc8n7Cc7ccc(C)cc7)cc6c5)ccc4o3)nc3ccccc32)cc1` [3b, 5,5′-Methylenebis(2-[1-(p-methylbenzyl)benzimidazol-2-yl]benzofuran)] returned an EC50 of over 145 µM.
Same read-out and setting: the result for `COc1cccc(Cn2c(-c3cc4cc(Cc5ccc6oc(-c7nc8ccccc8n7Cc7cccc(OC)c7)cc6c5)ccc4o3)nc3ccccc32)c1` [3c, 5,5′-Methylenebis(2-[1-(m-methoxybenzyl)benzimidazol-2-yl]benzofuran)] reads over 139 µM.
In series [1], `c1ccc(Cn2c(-c3cc4cc(Cc5ccc6oc(-c7nc8ccccc8n7Cc7ccccc7)cc6c5)ccc4o3)nc3ccccc32)cc1` [3a, 5,5′-Methylenebis[2-(1-benzylbenzimidazol-2-yl)benzofuran]] showed an EC50 of over 114 µM.
The same measure, in the same setting: the result for `Cc1ccc(N2C(=O)CN(C)C2c2cc3cc(Cc4ccc5oc(C6N(C)CC(=O)N6c6ccc(C)cc6)cc5c4)ccc3o2)cc1` (stereo not drawn) [2b, (2″R,2‴R)-, (2″S,2‴S)-, and meso-(2″R,2‴S)-5,5′-Methylenebis(2-[N-methyl-3″-(4-methylphenyl)-4″-oxo-1″,3″-imidazolidin-2″-yl]benzofuran)] reads over 160 µM; that for `Brc1cccc(Cn2c(-c3cc4cc(Cc5ccc6oc(-c7nc8ccccc8n7Cc7cccc(Br)c7)cc6c5)ccc4o3)nc3ccccc32)c1` [3i, 5,5′-Methylenebis(2-[1-(m-bromobenzyl)benzimidazol-2-yl]benzofuran)], 91.6 µM.
`Fc1ccccc1Cn1c(-c2cc3cc(Cc4ccc5oc(-c6nc7ccccc7n6Cc6ccccc6F)cc5c4)ccc3o2)nc2ccccc21` [3e, 5,5′-Methylenebis(2-[1-(o-fluorobenzyl)benzimidazol-2-yl]benzofuran)] returned a logP in the series “physchem” of 4.65. In series [1], this compound came in with an EC50 of over 21.5 µM.
In the case of `C[C@@]1(O)[C@H](O)[C@@H](CO)O[C@H]1n1ccc(N)nc1=O` [2-C-methylcytidine], in series [2], the EC90 is 0.32 µg/mL (≈ 1.24 µM) and the SI is 141.
On to `COc1ccc(Cn2c(-c3cc4cc(Cc5ccc6oc(-c7nc8ccccc8n7Cc7ccc(OC)cc7)cc6c5)ccc4o3)nc3ccccc32)cc1` [3d, 5,5′-Methylenebis(2-[1-(p-methoxybenzyl)benzimidazol-2-yl]benzofuran)], for which the EC50 in series [1] amounted to 27.7 µM. In other words, the double-digit micromolar range.
`O=C(O)c1cc2cc(Cc3ccc4oc(C(=O)O)cc4c3)ccc2o1` [compound 11]: in series [1], the “activity towards YFV” value was “did not exhibit any activity” and the EC50 is over 297 µM.
`CN1CC(=O)N(c2ccc(Br)cc2)C1c1cc2cc(Cc3ccc4oc(C5N(C)CC(=O)N5c5ccc(Br)cc5)cc4c3)ccc2o1` (stereo not drawn) [2j, (2″R,2‴R)-, (2″S,2‴S)-, and meso-(2″R,2‴S)-5,5′-Methylenebis(2-[N-methyl-3″-(4-bromophenyl)-4″-oxo-1″,3″-imidazolidin-2″-yl]benzofuran)] registered an EC50 in series [1] of over 133 µM.
With `Cc1ccc(C)c(N2C(=O)CN(C)C2c2cc3cc(Cc4ccc5oc(C6N(C)CC(=O)N6c6cc(C)ccc6C)cc5c4)ccc3o2)c1` (stereo not drawn) [2d, (2″R,2‴R)-, (2″S,2‴S)-, and meso-(2″R,2‴S)-5,5′-Methylenebis(2-[N-methyl-3″-(2,5-dimethylphenyl)-4″-oxo-1″,3″-imidazolidin-2″-yl]benzofuran)], the logP in the series “physchem” came to 4.38. In series [1], this compound yielded an SI of 2.40 and an EC50 of 7.7 µM. In the series “in vitro”, this compound came in with a CC50 of 18.5 µM.
As to `CC(C)n1c(-c2cc3cc(Cc4ccc5oc(-c6nc7ccccc7n6C(C)C)cc5c4)ccc3o2)nc2ccccc21` [3j, 5,5′-Methylenebis[2-(1-isopropylbenzimidazol-2-yl)benzofuran]], the logP in the series “physchem” is 3.71. Moreover, the EC50 in series [1] was found to be 6.14 µM. The compound further returned a CC50 in “in vitro” of 69.3 µM.
With `CN1CC(=O)N(c2ccc(F)cc2)C1c1cc2cc(Cc3ccc4oc(C5N(C)CC(=O)N5c5ccc(F)cc5)cc4c3)ccc2o1` (stereo not drawn) [2h, (2″R,2‴R)-, (2″S,2‴S)-, and meso-(2″R,2‴S)-5,5′-Methylenebi(2-[N-methyl-3″-(4-fluorophenyl)-4″-oxo-1″,3″-imidazolidin-2″-yl]benzofuran)], the logP in “physchem” stood at 4.6. For the same compound, in series [1], the SI is recorded as 1.63 and the midpoint of the response, the EC50, lay at 23.5 µM. Besides, the CC50 in “in vitro” amounted to 38.5 µM.
For `c1ccc2c(c1)nc(-c1cc3cc(Cc4ccc5oc(-c6nc7ccccc7n6C6CCCC6)cc5c4)ccc3o1)n2C1CCCC1` [3k, 5,5′-Methylenebis[2-(1-cyclopentylbenzimidazol-2-yl)benzofuran]], the EC50 in series [1] was over 162 µM.
As for `CCOC(=O)c1cc2cc(Cc3ccc4oc(C(=O)OCC)cc4c3)ccc2o1` [compound 10], in series [1], the “activity towards YFV” value was “did not exhibit any activity” and the EC50 is over 255 µM.
The compound `CN1CC(=O)N(c2cccc(C(F)(F)F)c2)C1c1cc2cc(Cc3ccc4oc(C5N(C)CC(=O)N5c5cccc(C(F)(F)F)c5)cc4c3)ccc2o1` (stereo not drawn) [2k, (2″R,2‴R)-, (2″S,2‴S)-, and meso-(2″R,2‴S)-5,5′-Methylenebis(2-[N-methyl-3″-(3-trifluoromethyl)phenyl-4″-oxo-1″,3″-imidazolidin-2″-yl]benzofuran)] gave a logP in the series “physchem” of 5.16. It took 8.89 µM to reach a half-maximal effect in series [1] (EC50). The same compound showed a CC50 in the series “in vitro” of 75 µM.
For `NC(=O)c1ncn([C@@H]2O[C@H](CO)[C@@H](O)[C@H]2O)n1` [Ribavirin], in the series on yellow fever, the survival entry is “lack of improved survival”.
With `Fc1ccc(Cn2c(-c3cc4cc(Cc5ccc6oc(-c7nc8ccccc8n7Cc7ccc(F)cc7)cc6c5)ccc4o3)nc3ccccc32)cc1` [3f, 5,5′-Methylenebis(2-[1-(p-fluorobenzyl)benzimidazol-2-yl]benzofuran)], the response in series [1] was half-maximal at 28.7 µM (EC50).
On the same count and under the same terms, the result for `c1ccc2c(c1)nc(-c1cc3cc(Cc4ccc5oc(-c6nc7ccccc7n6C6CCCCC6)cc5c4)ccc3o1)n2C1CCCCC1` [3l, 5,5′-Methylenebis[2-(1-cyclohexylbenzimidazol-2-yl)benzofuran]] reads over 28.7 µM; that for `Clc1ccc(Cn2c(-c3cc4cc(Cc5ccc6oc(-c7nc8ccccc8n7Cc7ccc(Cl)cc7)cc6c5)ccc4o3)nc3ccccc32)cc1` [3h, 5,5′-Methylenebis(2-[1-(p-chlorobenzyl)benzimidazol-2-yl]benzofuran)], over 103 µM.
On to `CN1CC(=O)N(c2ccccc2)C1c1cc2cc(Cc3ccc4oc(C5N(C)CC(=O)N5c5ccccc5)cc4c3)ccc2o1` (stereo not drawn) [2a, (2″R,2‴R)-, (2″S,2‴S)-, and meso-(2″R,2‴S)-5,5′-Methylenebis[2-(N-methyl-3″-phenyl-4″-oxo-1″,3″-imidazolidin-2″-yl)benzofuran]], for which, in “physchem”, the logP came to 4.75. Besides, the EC50 in series [1] was over 133 µM.
Compound `O=Cc1cc2cc(Cc3ccc4oc(C=O)cc4c3)ccc2o1` [compound 7] had a logP in the series “physchem” of 3.75. Moreover, in series [1], the “activity towards YFV” value is recorded as “did not exhibit any activity” and the EC50 is over 329 µM.
In the series “physchem”, `COc1ccc(N2C(=O)CN(C)C2c2cc3cc(Cc4ccc5oc(C6N(C)CC(=O)N6c6ccc(OC)cc6)cc5c4)ccc3o2)cc1` (stereo not drawn) [2g, (2″R,2‴R)-, (2″S,2‴S)-, and meso-(2″R,2‴S)-5,5′-Methylenebis(2-[N-methyl-3″-(4-methoxyphenyl)-4″-oxo-1″,3″-imidazolidin-2″-yl]benzofuran)] displayed a logP of 4.25. Moreover, the EC50 in series [1] is over 152 µM.
In the case of `Cc1cc(C)cc(N2C(=O)CN(C)C2c2cc3cc(Cc4ccc5oc(C6N(C)CC(=O)N6c6cc(C)cc(C)c6)cc5c4)ccc3o2)c1` (stereo not drawn) [2e, (2″R,2‴R)-, (2″S,2‴S)-, and meso-(2″R,2‴S)-5,5′-Methylenebis[2-(N-methyl-3″-(3,5-dimethylphenyl)-4″-oxo-1″,3″-imidazolidin-2″-yl)benzofuran]], the logP in the series “physchem” turned out to be 4.15. The compound further came in with an EC50 in series [1] of 3.54 µM. In the series “in vitro”, this compound gave a CC50 of 54.1 µM.
